Test results as given in PMC6204821, “Inhibitory effect of microalgae and cyanobacteria extracts on influenza virus replication and neuraminidase activity” (PeerJ, 2018).
pEC50: −log10 of the molar value.

Legend:
[1] = system: A(H1N1)pdm09-WT (A/California/04/2009); assay: microbe, parasite or virus in culture; format: cell-based; conditions: Influenza A virus, H1N1, MDCK, read-out: EC50 A(H1N1)pdm09-WT
[2] = in vitro; conditions: dog
Experimental: One hundred microliters of 2.0 × 10^4 MDCK cells were seeded into the 96-well culture plates (flat bottom) and grown for 24 h at 37 °C in a 5% CO2 atmosphere, then, the extracts were added with a final concentration of 1 mg/mL in DMEM. […] The extracts were diluted in culture medium DMEM, the DMSO final concentration was equal to 1.0% (v/v). After 48 h of cells incubation with extracts or vehicle (DMSO), a freshly prepared XTT (Sigma) solution was added, as specified by the manufacturer’s instructions. […] The cell viability was calculated by the comparison between absorbance (A475 nm–A660 nm) from treated (A) and untreated (B) cells using the formula: A/B × 100. Tests were carried out performing three replicates (n = 3).

[3] = system: A(H3N2)-WT (A/Switzerland/9715293/2013); assay: microbe, parasite or virus in culture; format: cell-based; conditions: Influenza A virus, H3N2, MDCK, read-out: EC50 A(H3N2)-WT
[4] = target: neuraminidase of B/Perth/211/2001 Yam (WT) (Influenza B virus, UniProt Q3S340); assay: biochemical; conditions: read-out: NA Activity (%)
Sequence of neuraminidase of B/Perth/211/2001 Yam (WT) (Q3S340 1-466): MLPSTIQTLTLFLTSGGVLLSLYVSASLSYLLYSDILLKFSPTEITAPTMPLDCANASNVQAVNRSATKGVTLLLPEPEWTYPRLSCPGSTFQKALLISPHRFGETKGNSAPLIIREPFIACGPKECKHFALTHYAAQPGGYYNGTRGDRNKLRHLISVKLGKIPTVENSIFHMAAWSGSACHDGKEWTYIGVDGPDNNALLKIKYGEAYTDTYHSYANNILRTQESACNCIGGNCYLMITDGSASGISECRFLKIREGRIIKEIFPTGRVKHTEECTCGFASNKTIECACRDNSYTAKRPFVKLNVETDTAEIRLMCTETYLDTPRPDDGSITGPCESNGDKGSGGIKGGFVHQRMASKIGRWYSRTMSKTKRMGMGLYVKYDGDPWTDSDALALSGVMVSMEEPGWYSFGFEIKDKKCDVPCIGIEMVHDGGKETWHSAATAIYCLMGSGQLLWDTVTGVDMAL

SMILES	pEC50 [1]	CC50 at 48 h [2] [µM]	pEC50 [3]	activity at 10 pM [4] [%]	activity at 0.0001 µM [4] [%]	activity at 0.001 µM [4] [%]	activity at 0.01 µM [4] [%]	activity at 0.1 µM [4] [%]	activity at 1 µM [4] [%]
CCC(CC)O[C@@H]1C=C(C(=O)O)C[C@H](N)[C@H]1NC(C)=O [OST-car, Oseltamivir carboxylate]	7.92	2130	7.49	–	–	–	–	–	–
CCOC(=O)C1=C[C@@H](OC(CC)CC)[C@H](NC(C)=O)[C@@H](N)C1 [Oseltamivir]	–	–	–	104	118	92	32	11	11
